Measurements from the NIST ThermoML archive (doi:10.1016/j.fluid.2005.03.016).
Several values for one entry are separate records, joined by “and”; a condition that tells them apart may be missing. Equal values may be shown once. Numbers after ± are expanded uncertainties.

Settings: Liquid, Closed cell (Static) method

Row | vapor or sublimation pressure (313.07 K) [kPa] | vapor or sublimation pressure (313.1 K) [kPa] | vapor or sublimation pressure (313.08 K) | SMILES | further results
1 | 17.77 ± 0.41 | – | – | CCO [ethanol] | –
2 | 35.27 ± 0.43 | – | – | CO [methanol] | –
3 | – | 5.97 ± 0.4 | – | CCC(C)O (centres undefined) [butan-2-ol] | –
4 | – | – | – | CC(C)O [propan-2-ol] | vapor or sublimation pressure (313.11 K): 13.77 ± 0.41 kPa
5 | – | – | 13.77 ± 0.41 kPa | CC(C)(C)O [2-methylpropan-2-ol] | –
6 | – | 529.95 ± 2.4 | 530.05 ± 2.4 kPa and 529.95 ± 2.4 kPa | CC(C)C [2-methylpropane] | vapor or sublimation pressure (313.06 K): 529.65 ± 2.3 kPa; vapor or sublimation pressure (313.12 K): 530.75 ± 2.3 kPa
